According to patent US20160158330A1, “METHODS OF PREPARATION AND COMPOSITION OF PEPTIDE CONSTRUCTS USEFUL FOR TREATMENT OF RHEUMATOID ARTHRITIS” (CEL-SCI CORPORATION, priority 2013, published 2016):
“Also recorded” adds a separate entry of the source. Where no end group is shown, it is not given here. [ ]: non-standard residue; d: D form. Cit = NC(=O)NCCC[C@H](N)C(=O)O

Key:
[1] = tested on: splenic T cells from BALB/c mice with PGIA; experiment: Splenic T cell proliferation, [3H]thymidine incorporation (stimulation index); assay type: cell-based; details: 5 μM peptide, splenocytes of PGIA BALB/c mice, p<0.05
Method: (§1) FIG. 3 illustrates T cell proliferation and T cell polarization (TH1:TH2) induced by P70, DerG-PG70 and J-PG70 peptides (Panel A). […] Panel B) T cell polarization by Th1:Th2 cytokine (IFNγ:IL-4) ratios. […] It is noted that these two responses are mutually exclusive. Amounts of IFNγ and IL-4 in culture fluid samples were determined by ELISA (enzyme-linked immunosorbent assay, a common test that uses antibodies and color change to measure protein amounts). The “baseline” value for this ratio, i.e., the value of this ratio in untreated (unpolarized) T cells, is around 3.2 (the black bar, “None,” in FIG. 3B). An increased ratio indicates relatively more IFNγ and/or less IL-4, which in turn indicates a shift towards a Th1 response and away from a Th2 response. A decreased value (below 3.2) indicates relatively more IL-4 and/or less IFNγ and thus a shift towards a Th2 response and away from a Th1 response. Cells were isolated from spleens by gently pushing the organ through a wire cell sieve mesh screen with a sterile 5 cc syringe plunger. The spleens were from BALB/c retired female breeder mice with PGIA (n=3), cultured individually for 5 days in the absence (None) or presence of the different designated peptides (5 μM each) on PG protein (10 m). As has been previously shown, the only cell type incorporating tritiated [^3H]thymidine into DNA are T cells. Therefore, proliferation of splenic T cells was measured in 96 well plates by use of [^3H]thymidine ([…]; specific activity: 2 Ci/mmol, Amersham, Arlington Heights, Ill.) incorporation from day 4 to 5 and expressed as a stimulation index based on the counts per minute normalized to the untreated control (panel A). Treatments were done in triplicate wells for the proliferation assay, and identical triplicate wells were used to harvest culture fluid at 48 hours for cytokine assays. The amounts of IFNγ (a Th1 cytokine) and IL-4 (a Th2 cytokine) in the media of the same cultures were determined by ELISA and expressed as ratios.
(§2) The effect of L.E.A.P.S. conjugates on T cell responses is shown in this example. J-PG70 conjugates modulated the proliferation of T cells isolated from spleen or lymph-node cells from wild type BALB/c mice with PGIA or naïve, PG-TCR-transgenic BALB/c mice.

IFNγ:IL-4 = experiment: T cell polarization by Th1:Th2 cytokine (IFNγ:IL-4) ratio, ELISA; assay type: cell-based; details: 5 μM peptide, splenocytes of PGIA BALB/c mice; baseline ratio around 3.2
Method: as §1, §2

[2] = tested on: proteoglycan-induced arthritis (PGIA); experiment: L.E.A.P.S. peptide vaccination of PGIA mice, AI scores; assay type: in vivo; details: n=8 mice/group
Text: In this example, in vivo experiments of efficacy and protection are shown in FIG. 4, which indicates groups from a first study of efficacy of vaccine candidates, and related controls.

[3] = tested on: Th1, Th2, Th17, and regulatory T cells (Tregs); experiment: Proportions of Th1, Th2, Th17 and Tregs in spleen cell cultures from vaccinated mice (flow cytometry); assay type: in vivo; details: spleen cell cultures from vaccinated PGIA mice, n=4 mice/group
Method: The proportions of Th1, Th2, Th17, and regulatory T cells (Tregs) in spleen cell cultures from the vaccinated mice were determined by flow cytometry. Protection was associated with decreased proportions of Th1 and Th17 cells, and increases in Th2 cells and Tregs (p<0.05-0.001, Fisher's LSD test; n=4 mice/group). […] This is similar to the pattern of cytokines secreted by the cells.
In this example, the effects of L.E.A.P.S.-PG peptide conjugate vaccination on the proportions of splenic Th1, Th2, Th17, and regulatory T cells (Tregs) are shown in FIG. 8. The proportions of Th1, Th2, Th17, and regulatory T cells (Tregs) in spleen cell cultures from the vaccinated mice were determined by flow cytometry. Protection was associated with decreased proportions of Th1 and Th17 cells, and increases in Th2 cells and Tregs (p<0.05-0.001, Fisher's LSD test; n=4 mice/group).

spleen cells = experiment: PG-specific spleen cell proliferation of vaccinated PGIA mice (in vitro assay); assay type: in vivo; details: cells from vaccinated PGIA mice, in vitro stimulation
Text: (§3) The joint sections were stained with hematoxylin and eosin. One representative section per group is shown. […] Protection was associated with reduced PG-specific T cell proliferation.

[4] = tested on: ankle (tibio-talar) joints; experiment: Histology of ankle (tibio-talar) joints of vaccinated PGIA mice; assay type: in vivo; details: PGIA mice 36 days after treatment, conjugate in adjuvant
Text: Histology of ankle (tibio-talar) joints are shown in (A) normal mice and in (B-D) PGIA mice 36 days after undergoing treatment with L.E.A.P.S. conjugates. The normal joint is characterized by smooth cartilage surfaces on the tibia (Ti) and talus (Ta), inflammatory cell-free joint cavity (JC) and synovial tissue (ST). The ST is lined by a thin layer of cells and contains mainly fat tissue. Ankle joints from mice with PGIA shown in (B), treated with PBS in adjuvant, show evidence of synovial thickening (hyperplasia), inflammatory cell accumulation in the JC and ST, as well as partial erosion of cartilage surface (arrows).
as §3

IL-12p40 = experiment: Intracellular expression of IL-12p40 by DCs (flow cytometry); assay type: cell-based, BALB/c mice
Method: FIG. 2 illustrates the effects of L.E.A.P.S.-PG conjugates on intracellular expression of IL-12p40 by DCs. DCs from BALB/c female retired breeder normal mice (n=3), having no PGIA disease (generated from bone marrow as described under FIG. 1) were incubated for 24 hours with the indicated peptides (5 μM each) at a cell density of 1×10^6 DCs/mL. DCs not receiving treatment (None) or treated with LPS (1 μg/ml) served as negative and positive controls, respectively. At the end of treatment, DCs were harvested and incubated with 1 μg/mL monensin (GolgiStop, BD Biosciences) for 4 hours to prevent cytokine secretion. Surface staining of DCs was done with fluoresecein isothiocyanate-(FITC) conjugated anti-CD11c antibody. The cells were then fixed and permeabilized using BD Biosciences' Cytofix/Cytoperm Kit. Intracellular IL-12 was detected with a phycoerythrin-(PE) labeled antibody to mouse IL-12p40 (eBioscience). Flow cytometry was carried out as described above. The number of IL-12p40+DCs was determined by gating on CD11c+ cells, and the results expressed as the % of IL-12p40+ of all CD11c+DCs. […] The error bars represent ±SEM.

Bone marrow-derived DCs = experiment: DC maturation in vitro: MHC class II and CD86 expression by flow cytometry; assay type: cell-based; details: 5 μM peptide, 24 hours, bone marrow-derived DCs of naïve BALB/c mice
Method: FIG. 1 illustrates the effects of PG and L.E.A.P.S.-PG conjugates on DC maturation as indicated by MHC class II and CD86 expression (left and right panels respectively) following treatment (24 hours). […] MFI: mean fluorescence intensity (arbitrary units). […]
To generate DCs, the bone marrow cells were cultured for 9 days in the presence of recombinant mouse granulocyte-macrophage colony stimulating factor (GM-CSF, Sigma-Aldrich, St Louis, Mo.) at a dose of 200 U/ml (Egelston C., Kurko J., Besenyei T. et al. (2012) Suppression of dendritic cell maturation and T cell proliferation by synovial fluid myeloid cells from mice with autoimmune arthritis. Arthritis Rheum 64: 3179-3188). […] After the 24-hour culture with the indicated stimulants, the cells were washed with PBS containing 0.5% bovine serum albumin and 0.01% sodium azide (fluorescence activated cell sorter (FACS) buffer). […]

ATEGRVRVNSAYQDK (listed as Homo Sapiens) [PG70, proteoglycan aggrecan (G1) residues 70-84, reference compound]
T cell proliferation rate (stimulation index) versus untreated [1]: significantly increased | T cell polarization, Th1:Th2 cytokine (IFNγ:IL-4) ratio versus untreated (IFNγ:IL-4): significantly skewed towards a Th1 response

DGQEEKAGVVSTGLIGGGATEGRVRVNSAYQDK (Heteroconjugate Construct) [DerG-PG70]
Day from which difference from the other groups became statistically significant ([2]; p<0.05 repeated measures ANOVA): ~12 days | Disease severity (AI scores) ([2]; vaccine in adjuvant): dramatically suppressed; also recorded: therapeutically effective | Immune deviation (proportions of Th1, Th2, Th17, Tregs) [3]: inducing immune deviation in favor of Th2 and Treg cells | PG-specific spleen cell proliferation (spleen cells): much less responsive | Histology of ankle joints (synovial hyperplasia, cell infiltration, cartilage erosion) [4]: only mild ST hyperplasia as shown in (D), but no cell infiltration or cartilage damage | T cell proliferation rate (stimulation index) versus untreated [1]: no significant difference | T cell polarization, Th1:Th2 cytokine (IFNγ:IL-4) ratio versus untreated (IFNγ:IL-4): significant shift towards Th2; also recorded: significantly skewed towards a Th2 response

DLLKNGERIEKVEGGGATEG(Cit)VRVNSAYQDK (DLLKNGERIEKVEGGGATEG[Cit]VRVNSAYQDK) [J-PG70Cit]
% of IL-12p40+ of all CD11c+ DCs (IL-12p40; peptide 5 μM, 24 hours, untreated group 3.8%): 7.3% | T cell proliferation rate (stimulation index) versus untreated [1]: significantly increased | T cell polarization, Th1:Th2 cytokine (IFNγ:IL-4) ratio versus untreated (IFNγ:IL-4): significant shift towards Th1; also recorded: significantly skewed towards a Th1 response

DLLKNGERIEKVEGGGATEGRVRVNSAYQDK (Heteroconjugate Construct) [J-PG70, L.E.A.P.S. heteroconjugate of ICBL Peptide J linked to PG70 through a triglycine linker]
IL-12 intracellular expression in matured DCs (IL-12p40; 24 hours of incubation): modulated the IL-12 intracellular expression | DC maturation (MHC class II and CD86 surface marker expression) (Bone marrow-derived DCs): led to matured dendritic cells | T cell proliferation rate (stimulation index) versus untreated [1]: higher T cell proliferation as compared to PG70; also recorded: significantly increased | T cell polarization, Th1:Th2 cytokine (IFNγ:IL-4) ratio versus untreated (IFNγ:IL-4): significantly skewed towards a Th1 response
